The results in this text go back to US20250388605A1, “HETEROBIFUNCTIONAL COMPOUNDS AND METHODS OF TREATING DISEASE” (Halda Therapeutics OpCo, Inc., priority 2022, published 2025).

Assay [1] has as its system T-Rex 293 cell line SC3 cells having increased expression of androgen receptor protein due to exposure to doxycycline. The experiment in a line: Cellular growth inhibition, T-Rex 293 SC3 cells with doxycycline (increased androgen receptor expression), CellTiter-Glo. Type of assay: cell-based. To be noted: T-Rex 293 SC3 cells with 10 ng/mL doxycycline (increased androgen receptor expression), 72 hours, CellTiter-Glo 2.0. The essentials: (§1)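 Doxycycline (10 ng/mL) was either included or omitted to toggle wild-type androgen receptor expression in SC3 cells, a T-Rex 293 clone, grown in stripped-serum, phenol red-free medium. After 72 hours with compound, viable cells were quantified by CellTiter-Glo 2.0.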

In assay [2] the test system is T-Rex 293 cell line SC3 cells lacking increased expression of androgen receptor protein. Nature of the assay: Cellular growth inhibition, T-Rex 293 SC3 cells without doxycycline (no increased androgen receptor expression), CellTiter-Glo. It counts as cell-based. To be noted: T-Rex 293 SC3 cells not exposed to doxycycline (no increased androgen receptor expression), 72 hours. The method in brief:
as §1

Another assay relates to VCaP cells. Nature of the assay: Cellular growth inhibition assay for VCaP cells, CellTiter-Glo. Type of assay: cell-based, human. Conditions: 72 hours. The essentials: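 GI50 values come from four-parameter curve fits of luminescence data normalized to a zero baseline. Compound, in medium with 0.5% DMSO, was added one day after plating and left for 72 h before CellTiter-Glo 2.0 addition.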

The test system of the next assay is T47D cells. The experiment in a line: Cellular Growth Inhibition Assay for T47D Cells (CellTiter-Glo). It counts as cell-based, human. Conditions: 72 hours. The method in brief:
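GI50 values derive from four-parameter regression of CellTiter-Glo 2.0 luminescence, using zero luminescence as baseline. Human breast cancer T47D cells (3000/well; DMEM, 10% FBS, 0.2 units/mL insulin) were exposed for 72 h to compound dilutions at 0.5% DMSO, with dosing starting 24 h after seeding.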

Bounds are passed on as bounds.

For `Cn1cc(-c2cc(C(C)(C)O)ccc2OC2CC(OC3CCN(c4ncc(C(=O)NC5C(C)(C)C(Oc6ccc(C#N)c(Cl)c6)C5(C)C)cn4)CC3)C2)c2cc[nH]c2c1=O` (stereo not drawn) [Compound I-274, N-[3-(3-chloro-4-cyano-phenoxy)-2,2,4,4-tetramethyl-cyclobutyl]-2-[4-[3-[4-(1-hydroxy-1-methyl-ethyl)-2-(6-methyl-7-oxo-1H-pyrrolo[2,3-c]pyridin-4-yl)phenoxy]cyclobutoxy]-1-piperidyl]pyrimidine-5-carboxamide], the GI50 (in assay [1]; in assay [2]; with VCaP cells (Homo sapiens); in the assay on T47D cells (Homo sapiens)) was less than 500 nM in each case.
Consider `CCS(=O)(=O)c1ccc(Oc2ccc(CN3CC4(CCN(c5ncc(C(=O)N[C@H]6C(C)(C)[C@H](Oc7ccc(C#N)c(Cl)c7)C6(C)C)cn5)CC4)C3)c(F)c2)c(-c2cn(C)c(=O)c3[nH]ccc23)c1` [Compound I-275], for which the GI50 (in assay [1]; in assay [2]; with VCaP cells (Homo sapiens); in the assay with T47D cells (Homo sapiens)) was less than 500 nM in each case.
In the case of `CCS(=O)(=O)c1ccc(Oc2ccc(OC3CC4(C3)CN(c3ncc(C(=O)N[C@H]5C(C)(C)[C@H](Oc6ccc(C#N)c(Cl)c6)C5(C)C)cn3)C4)c(F)c2)c(-c2cn(C)c(=O)c3[nH]ccc23)c1` [Compound I-276], the GI50 (in assay [1]; in assay [2]; in the assay with VCaP cells (Homo sapiens); in the assay on T47D cells (Homo sapiens)) was less than 500 nM in each case.
Turning to `CCS(=O)(=O)Nc1ccc(Oc2ccc(OCC3CCN(c4ncc(C(=O)N[C@H]5C(C)(C)[C@H](Oc6ccc(Cl)c(C#N)c6)C5(C)C)cn4)CC3)cc2)c(-c2cn(C)c(=O)c3[nH]ccc23)c1` [Compound I-277], the GI50 (in assay [1]; in assay [2]; in the assay on VCaP cells; with T47D cells) was less than 500 nM each time.
Consider `CCS(=O)(=O)c1ccc(Oc2ccc(CC3CCN(c4ncc(C(=O)N[C@H]5C(C)(C)[C@H](Oc6ccc(C#N)c(Cl)c6)C5(C)C)cn4)CC3)c(F)c2)c(-c2cn(C)c(=O)c3[nH]ccc23)c1` [Compound I-278], for which the GI50 in assay [1] is less than 500 nM; in assay [2] it was more than 3000 nM; with VCaP cells (Homo sapiens) it was less than 500 nM; with T47D cells (Homo sapiens) it was less than 500 nM.
Consider `Cn1cc(-c2cc(C(C)(C)O)ccc2OC2CC3(C2)CN(CCC2CCN(c4ncc(C(=O)NC5C(C)(C)C(Oc6ccc(C#N)c(Cl)c6)C5(C)C)cn4)CC2)C3)c2cc[nH]c2c1=O` (stereo not drawn) [Compound I-281, N-[3-(3-chloro-4-cyano-phenoxy)-2,2,4,4-tetramethyl-cyclobutyl]-2-[4-[2-[6-[4-(1-hydroxy-1-methyl-ethyl)-2-(6-methyl-7-oxo-1H-pyrrolo[2,3-c]pyridin-4-yl)phenoxy]-2-azaspiro[3.3]heptan-2-yl]ethyl]-1-piperidyl]pyrimidine-5-carboxamide], for which the GI50 in assay [1] is less than 500 nM; in assay [2], 500 to 1500 nM; with VCaP cells (Homo sapiens), less than 500 nM; with T47D cells (Homo sapiens), less than 500 nM.
`Cn1cc(-c2cc(C(C)(C)O)ccc2OCC(C)(C)CN2CC(OC3CCN(c4ncc(C(=O)NC5C(C)(C)C(Oc6ccc(C#N)c(Cl)c6)C5(C)C)cn4)CC3)C2)c2cc[nH]c2c1=O` (stereo not drawn) [Compound I-282, N-[3-(3-chloro-4-cyano-phenoxy)-2,2,4,4-tetramethyl-cyclobutyl]-2-[4-[1-[3-[4-(1-hydroxy-1-methyl-ethyl)-2-(6-methyl-7-oxo-1H-pyrrolo[2,3-c]pyridin-4-yl)phenoxy]-2,2-dimethyl-propyl]azetidin-3-yl]oxy-1-piperidyl]pyrimidine-5-carboxamide]: the GI50 in assay [1] was less than 500 nM; in assay [2], 500 to 1500 nM; in the assay with VCaP cells (Homo sapiens), less than 500 nM; in the assay with T47D cells (Homo sapiens) it was 500 to 1500 nM.
With `CCS(=O)(=O)c1ccc(Oc2ccc(OC3CC4(CCN(c5ncc(C(=O)N[C@H]6C(C)(C)[C@H](Oc7ccc(C#N)c(Cl)c7)C6(C)C)cn5)CC4)C3)c(F)c2)c(-c2cn(C)c(=O)c3[nH]ccc23)c1` [Compound I-283], the GI50 is less than 500 nM in assay [1], more than 3000 nM in assay [2], less than 500 nM in the assay on VCaP cells (Homo sapiens) and less than 500 nM with T47D cells (Homo sapiens).
As for `CCS(=O)(=O)c1ccc(Oc2ccc(CCC3CCN(c4ncc(C(=O)N[C@H]5C(C)(C)[C@H](Oc6ccc(C#N)c(Cl)c6)C5(C)C)cn4)CC3)c(F)c2)c(-c2cn(C)c(=O)c3[nH]ccc23)c1` [Compound I-284], the GI50 is less than 500 nM in assay [1], more than 3000 nM in assay [2], less than 500 nM in the assay on VCaP cells and less than 500 nM in the assay with T47D cells.
On to `CCS(=O)(=O)c1ccc(Oc2ccc(CCCC3CCN(c4ncc(C(=O)N[C@H]5C(C)(C)[C@H](Oc6ccc(C#N)c(Cl)c6)C5(C)C)cn4)CC3)c(F)c2)c(-c2cn(C)c(=O)c3[nH]ccc23)c1` [Compound I-285], for which the GI50 was less than 500 nM in assay [1], more than 3000 nM in assay [2], less than 500 nM with VCaP cells (Homo sapiens) and less than 500 nM in the assay on T47D cells (Homo sapiens).
On to `Cn1cc(-c2cc(C(C)(C)O)ccc2Oc2ccc(CCC3C4CN(c5ncc(C(=O)N[C@H]6C(C)(C)[C@H](Oc7ccc(C#N)c(Cl)c7)C6(C)C)cn5)CC34)cc2)c2cc[nH]c2c1=O` (stereo partly drawn) [Compound I-286], for which the GI50 in assay [1] was less than 500 nM; in assay [2], 500 to 1500 nM; in the assay on VCaP cells it was less than 500 nM; in the assay on T47D cells, less than 500 nM.
Regarding `Cn1cc(-c2cc(C(C)(C)O)ccc2Oc2ccc(CCC3CCN(c4ncc(C(=O)NC5C(C)(C)C(Oc6ccc(C#N)c(Cl)c6)C5(C)C)cn4)CC3)cn2)c2cc[nH]c2c1=O` (stereo not drawn) [Compound I-287, N-[3-(3-chloro-4-cyano-phenoxy)-2,2,4,4-tetramethyl-cyclobutyl]-2-[4-[2-[6-[4-(1-hydroxy-1-methyl-ethyl)-2-(6-methyl-7-oxo-1H-pyrrolo[2,3-c]pyridin-4-yl)phenoxy]-3-pyridyl]ethyl]-1-piperidyl]pyrimidine-5-carboxamide], the GI50 in assay [1] is less than 500 nM; in assay [2] it was more than 3000 nM; in the assay on VCaP cells (Homo sapiens), 500 to 1500 nM; with T47D cells (Homo sapiens) it was less than 500 nM.
With `Cn1cc(-c2cc(C(C)(C)O)ccc2OC2CCC(N3CC(OC4CCN(c5ncc(C(=O)N[C@H]6C(C)(C)[C@H](Oc7ccc(C#N)c(Cl)c7)C6(C)C)cn5)CC4)C3)CC2)c2cc[nH]c2c1=O` (stereo partly drawn) [Compound I-288, N-[3-(3-chloro-4-cyano-phenoxy)-2,2,4,4-tetramethyl-cyclobutyl]-2-[4-[1-[4-[4-(1-hydroxy-1-methyl-ethyl)-2-(6-methyl-7-oxo-1H-pyrrolo[2,3-c]pyridin-4-yl)phenoxy]cyclohexyl]azetidin-3-yl]oxy-1-piperidyl]pyrimidine-5-carboxamide], the GI50 (in assay [1]; in assay [2]; with VCaP cells (Homo sapiens); with T47D cells (Homo sapiens)) was less than 500 nM in each case.
Turning to `Cn1cc(-c2cc(C(C)(C)O)ccc2OC2CCC(N3CC(OC4CCN(c5ncc(C(=O)NC6C(C)(C)C(Oc7ccc(C#N)c(Cl)c7)C6(C)C)cn5)CC4)C3)CC2)c2cc[nH]c2c1=O` (stereo not drawn) [Compound I-289], the GI50 in assay [1] is less than 500 nM; in assay [2], 1500 to 3000 nM; in the assay on VCaP cells it was 500 to 1500 nM; in the assay on T47D cells, 1500 to 3000 nM.
For `Cn1cc(-c2cc(C(C)(C)O)ccc2O[C@H]2C[C@H](OCC3CCN(c4ncc(C(=O)N[C@H]5C(C)(C)[C@H](Oc6ccc(C#N)c(Cl)c6)C5(C)C)cn4)CC3)C2)c2cc[nH]c2c1=O` [Compound I-290], the GI50 in assay [1] was less than 500 nM; in assay [2], less than 500 nM; in the assay with VCaP cells, less than 500 nM; with T47D cells, 500 to 1500 nM.
